From ChEMBL document CHEMBL2439971, “Design, synthesis and antiproliferative evaluation of fluorenone analogs with DNA topoisomerase I inhibitory properties” (Bioorg Med Chem, 2013)
Calls of active or inactive are those of the source. The rule behind the calls is not given here.

Legend:
[1] = Cytotoxicity against human NCI60 cells; assay type: functional
Homo sapiens = species: Homo sapiens; assay: Inhibition of telomerase (unknown origin) at 10 uM TRAP assay
CAKI-1 = assay: Cytotoxicity against human CAKI-1 cells at 10 uM after 48 hrs by sulforhodamine B assay relative to control; assay type: functional
MDA-MB-468 = assay: Cytotoxicity against human MDA-MB-468 cells at 10 uM after 48 hrs by sulforhodamine B assay relative to control; assay type: functional
T47D = assay: Cytotoxicity against human T47D cells at 10 uM after 48 hrs by sulforhodamine B assay relative to control; assay type: functional
BT-549 = assay: Cytotoxicity against human BT549 cells at 10 uM after 48 hrs by sulforhodamine B assay relative to control; assay type: functional
[2] = Cytotoxicity against human Hs 578T cells at 10 uM after 48 hrs by sulforhodamine B assay relative to control; assay type: functional
MDA-MB-231 = assay: Cytotoxicity against human MDA-MB-231 cells at 10 uM after 48 hrs by sulforhodamine B assay relative to control; assay type: functional
MCF7 = assay: Cytotoxicity against human MCF7 cells at 10 uM after 48 hrs by sulforhodamine B assay relative to control; assay type: functional
DU-145 = assay: Cytotoxicity against human DU145 cells at 10 uM after 48 hrs by sulforhodamine B assay relative to control; assay type: functional
PC-3 [3] = assay: Cytotoxicity against human PC3 cells at 10 uM after 48 hrs by sulforhodamine B assay relative to control; assay type: functional
UO-31 = assay: Cytotoxicity against human UO31 cells at 10 uM after 48 hrs by sulforhodamine B assay relative to control; assay type: functional
TK-10 = assay: Cytotoxicity against human TK10 cells at 10 uM after 48 hrs by sulforhodamine B assay relative to control; assay type: functional
SN12C = assay: Cytotoxicity against human SN12C cells at 10 uM after 48 hrs by sulforhodamine B assay relative to control; assay type: functional
RXF 393 = assay: Cytotoxicity against human RXF393 cells at 10 uM after 48 hrs by sulforhodamine B assay relative to control; assay type: functional
ACHN = assay: Cytotoxicity against human ACHN cells at 10 uM after 48 hrs by sulforhodamine B assay relative to control; assay type: functional
786-0 = assay: Cytotoxicity against human 786-0 cells at 10 uM after 48 hrs by sulforhodamine B assay relative to control; assay type: functional
NCI/ADR-RES = assay: Cytotoxicity against human NCI/ADR-RES cells at 10 uM after 48 hrs by sulforhodamine B assay relative to control; assay type: functional
OVCAR-8 = assay: Cytotoxicity against human OVCAR8 cells at 10 uM after 48 hrs by sulforhodamine B assay relative to control; assay type: functional
OVCAR-5 = assay: Cytotoxicity against human OVCAR5 cells at 10 uM after 48 hrs by sulforhodamine B assay relative to control; assay type: functional
OVCAR-4 = assay: Cytotoxicity against human OVCAR4 cells at 10 uM after 48 hrs by sulforhodamine B assay relative to control; assay type: functional
OVCAR-3 = assay: Cytotoxicity against human OVCAR3 cells at 10 uM after 48 hrs by sulforhodamine B assay relative to control; assay type: functional
IGROV-1 = assay: Cytotoxicity against human IGROV1 cells at 10 uM after 48 hrs by sulforhodamine B assay relative to control; assay type: functional
UACC-62 = assay: Cytotoxicity against human UACC62 cells at 10 uM after 48 hrs by sulforhodamine B assay relative to control; assay type: functional
UACC-257 = assay: Cytotoxicity against human UACC257 cells at 10 uM after 48 hrs by sulforhodamine B assay relative to control; assay type: functional
SK-MEL-5 = assay: Cytotoxicity against human SK-MEL-5 cells at 10 uM after 48 hrs by sulforhodamine B assay relative to control; assay type: functional
SK-MEL-28 = assay: Cytotoxicity against human SK-MEL-28 cells at 10 uM after 48 hrs by sulforhodamine B assay relative to control; assay type: functional
SK-MEL-2 = assay: Cytotoxicity against human SK-MEL-2 cells at 10 uM after 48 hrs by sulforhodamine B assay relative to control; assay type: functional
MDA-MB-435 = assay: Cytotoxicity against human MDA-MB-435 cells at 10 uM after 48 hrs by sulforhodamine B assay relative to control; assay type: functional
M14 = assay: Cytotoxicity against human M14 cells at 10 uM after 48 hrs by sulforhodamine B assay relative to control; assay type: functional
Malme-3M = assay: Cytotoxicity against human MALME-3M cells at 10 uM after 48 hrs by sulforhodamine B assay relative to control; assay type: functional
LOX IMVI = assay: Cytotoxicity against human LOXIMVI cells at 10 uM after 48 hrs by sulforhodamine B assay relative to control; assay type: functional
SNB-75 = assay: Cytotoxicity against human SNB75 cells at 10 uM after 48 hrs by sulforhodamine B assay relative to control; assay type: functional
U-251 = assay: Cytotoxicity against human U251 cells at 10 uM after 48 hrs by sulforhodamine B assay relative to control; assay type: functional
SF-539 = assay: Cytotoxicity against human SF539 cells at 10 uM after 48 hrs by sulforhodamine B assay relative to control; assay type: functional
SNB-19 = assay: Cytotoxicity against human SNB19 cells at 10 uM after 48 hrs by sulforhodamine B assay relative to control; assay type: functional
SF-295 = assay: Cytotoxicity against human SF295 cells at 10 uM after 48 hrs by sulforhodamine B assay relative to control; assay type: functional
SF-268 = assay: Cytotoxicity against human SF268 cells at 10 uM after 48 hrs by sulforhodamine B assay relative to control; assay type: functional
SW-620 = assay: Cytotoxicity against human SW620 cells at 10 uM after 48 hrs by sulforhodamine B assay relative to control; assay type: functional
KM12 = assay: Cytotoxicity against human KM12 cells at 10 uM after 48 hrs by sulforhodamine B assay relative to control; assay type: functional
HT-29 = assay: Cytotoxicity against human HT-29 cells at 10 uM after 48 hrs by sulforhodamine B assay relative to control; assay type: functional
HCT-15 = assay: Cytotoxicity against human HCT15 cells at 10 uM after 48 hrs by sulforhodamine B assay relative to control; assay type: functional
HCT-116 = assay: Cytotoxicity against human HCT116 cells at 10 uM after 48 hrs by sulforhodamine B assay relative to control; assay type: functional
HCC 2998 = assay: Cytotoxicity against human HCC2998 cells at 10 uM after 48 hrs by sulforhodamine B assay relative to control; assay type: functional
COLO 205 = assay: Cytotoxicity against human COLO205 cells at 10 uM after 48 hrs by sulforhodamine B assay relative to control; assay type: functional
NCI-H522 = assay: Cytotoxicity against human NCI-H522 cells at 10 uM after 48 hrs by sulforhodamine B assay relative to control; assay type: functional
NCI-H460 = assay: Cytotoxicity against human NCI-H460 cells at 10 uM after 48 hrs by sulforhodamine B assay relative to control; assay type: functional
NCI-H322M = assay: Cytotoxicity against human NCI-H322M cells at 10 uM after 48 hrs by sulforhodamine B assay relative to control; assay type: functional
NCI-H23 = assay: Cytotoxicity against human NCI-H23 cells at 10 uM after 48 hrs by sulforhodamine B assay relative to control; assay type: functional
NCI-H226 = assay: Cytotoxicity against human NCI-H226 cells at 10 uM after 48 hrs by sulforhodamine B assay relative to control; assay type: functional
HOP-92 = assay: Cytotoxicity against human HOP92 cells at 10 uM after 48 hrs by sulforhodamine B assay relative to control; assay type: functional
HOP-62 = assay: Cytotoxicity against human HOP62 cells at 10 uM after 48 hrs by sulforhodamine B assay relative to control; assay type: functional
[4] = Cytotoxicity against human EKVX cells at 10 uM after 48 hrs by sulforhodamine B assay relative to control; assay type: functional
A549 = assay: Cytotoxicity against human A549 cells at 10 uM after 48 hrs by sulforhodamine B assay relative to control; assay type: functional
SR = assay: Cytotoxicity against human SR cells at 10 uM after 48 hrs by sulforhodamine B assay relative to control; assay type: functional
RPMI-8226 = assay: Cytotoxicity against human RPMI8226 cells at 10 uM after 48 hrs by sulforhodamine B assay relative to control; assay type: functional
MOLT-4 = assay: Cytotoxicity against human MOLT4 cells at 10 uM after 48 hrs by sulforhodamine B assay relative to control; assay type: functional
K562 = assay: Cytotoxicity against human K562 cells at 10 uM after 48 hrs by sulforhodamine B assay relative to control; assay type: functional
HL-60(TB) = assay: Cytotoxicity against human HL-60(TB) cells at 10 uM after 48 hrs by sulforhodamine B assay relative to control; assay type: functional
CCRF-CEM = assay: Cytotoxicity against human CCRF-CEM cells at 10 uM after 48 hrs by sulforhodamine B assay relative to control; assay type: functional
PC-3 [5] = assay: Cytotoxicity against human PC3 cells after 48 hrs by sulforhodamine B assay; assay type: functional, cell-based; details: PC-3, 48 h
[6] = target: DNA topoisomerase 1 (Homo sapiens) (UniProt P11387); assay: Inhibition of recombinant human DNA topoisomerase 1-mediated relaxation of supercoiled pHOT DNA at 25 to 50 uM after 45 mins by agarose gel electrophoresis
Chain of DNA topoisomerase 1 (Homo sapiens) (P11387 whole entry): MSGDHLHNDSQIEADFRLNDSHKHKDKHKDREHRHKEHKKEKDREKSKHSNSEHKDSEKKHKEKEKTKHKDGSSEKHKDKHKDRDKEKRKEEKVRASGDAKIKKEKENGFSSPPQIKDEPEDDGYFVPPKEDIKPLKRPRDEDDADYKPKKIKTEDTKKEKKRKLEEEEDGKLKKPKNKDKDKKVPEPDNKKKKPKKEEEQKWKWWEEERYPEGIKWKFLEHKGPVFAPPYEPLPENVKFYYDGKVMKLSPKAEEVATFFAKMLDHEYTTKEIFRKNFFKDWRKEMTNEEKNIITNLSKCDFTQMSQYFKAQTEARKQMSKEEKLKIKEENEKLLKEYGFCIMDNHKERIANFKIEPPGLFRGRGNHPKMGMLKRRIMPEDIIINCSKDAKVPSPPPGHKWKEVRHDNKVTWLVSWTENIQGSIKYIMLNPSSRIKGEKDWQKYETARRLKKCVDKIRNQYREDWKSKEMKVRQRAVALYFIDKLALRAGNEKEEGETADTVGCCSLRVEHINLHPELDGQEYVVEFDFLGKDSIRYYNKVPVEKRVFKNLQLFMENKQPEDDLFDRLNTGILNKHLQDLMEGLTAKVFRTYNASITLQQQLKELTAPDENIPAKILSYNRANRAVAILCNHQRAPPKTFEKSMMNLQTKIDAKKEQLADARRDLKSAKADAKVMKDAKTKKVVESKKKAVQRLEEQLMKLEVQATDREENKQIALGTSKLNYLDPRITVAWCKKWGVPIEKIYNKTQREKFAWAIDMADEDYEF

CCN(CC)CCC(=O)Nc1ccc2c(c1)C(=O)c1cc(NC(=O)CCN(CC)CC)ccc1C2=O
GI50 [1]: 2570 nM

CN1CCN(CC(=O)Nc2ccc3c(c2)C(=O)c2cc(NC(=O)CN4CCN(C)CC4)ccc2-3)CC1
inhibition (Homo sapiens): inactive
Activity (CAKI-1): 92.75%
Activity (MDA-MB-468): 98.39%
Activity (T47D): 103.63%
Activity (BT-549): 110.6%
Activity [2]: 107.34%
Activity (MDA-MB-231): 108.13%
Activity (MCF7): 95.17%
Activity (DU-145): 117.23%
Activity (PC-3 [3]): 101.32%
Activity (UO-31): 89.84%
Activity (TK-10): 106.54%
Activity (SN12C): 100.48%
Activity (RXF 393): 110.09%
Activity (ACHN): 111.9%
Activity (786-0): 102.26%
Activity (NCI/ADR-RES): 102.76%
Activity (OVCAR-8): 111.5%
Activity (OVCAR-5): 119.06%
Activity (OVCAR-4): 111.66%
Activity (OVCAR-3): 125.59%
Activity (IGROV-1): 110.15%
Activity (UACC-62): 110.11%
Activity (UACC-257): 133.36%
Activity (SK-MEL-5): 103.25%
Activity (SK-MEL-28): 97.75%
Activity (SK-MEL-2): 119.93%
Activity (MDA-MB-435): 95.92%
Activity (M14): 106.48%
Activity (Malme-3M): 115.66%
Activity (LOX IMVI): 96.76%
Activity (SNB-75): 87.76%
Activity (U-251): 97.19%
Activity (SF-539): 107.96%
Activity (SNB-19): 101.36%
Activity (SF-295): 93.37%
Activity (SF-268): 115.79%
Activity (SW-620): 103.43%
Activity (KM12): 108.52%
Activity (HT-29): 95.51%
Activity (HCT-15): 106.48%
Activity (HCT-116): 94.2%
Activity (HCC 2998): 98.62%
Activity (COLO 205): 102.69%
Activity (NCI-H522): 90.02%
Activity (NCI-H460): 108.46%
Activity (NCI-H322M): 97.25%
Activity (NCI-H23): 99.17%
Activity (NCI-H226): 106.03%
Activity (HOP-92): 93.88%
Activity (HOP-62): 111.05%
Activity [4]: 100.31%
Activity (A549): 106.99%
Activity (SR): 105.62%
Activity (RPMI-8226): 106.31%
Activity (MOLT-4): 96.58%
Activity (K562): 104.58%
Activity (HL-60(TB)): 100.43%
Activity (CCRF-CEM): 98.38%
IC50 (PC-3 [5]): > 30000 nM

O=C(CCN1CCCC1)Nc1ccc2c(c1)C(=O)c1cc(NC(=O)CCN3CCCC3)ccc1C2=O
GI50 [1]: 3890 nM

CN(C)CC(=O)Nc1ccc2c(c1)C(=O)c1cc(NC(=O)CN(C)C)ccc1C2=O
inhibition [6]: Active
GI50 [1]: 2090 nM
